Data on 54 compounds can be found in US8697694B2, “Substituted pyridine and pyrimidine derivatives and their use in treating viral infections” (priority 2008, dated 2014).

The subject of one assay is HCV replicon cells. The assay is described as follows: Cell-based HCV replicon assay (replicon RNA level by real time PCR, Taqman). To be noted: HCV replicon cells, harvested day 3, replicon RNA by real time PCR; reported as range class; read-out: EC90 (μM) range. The method in brief: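 HCV replicon cells treated 3 days with 10 serial 2-fold compound dilutions (top 25 μM to 1 μM; 0.5% DMSO, 10% FBS). Replicon RNA quantified by multiplex Taqman RT-PCR (NS5B amplicon, GAPDH control); EC50 and EC90 = concentrations giving ΔCT of 1 and 3.2 over baseline.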
A general note: In antiviral work, replicon cells carry a viral genome segment that copies itself.
In general, EC90 refers to the concentration at which the effect reaches the 90% level. In the case of `COc1cc2cc(-c3c(Cl)nc(N(C)C)nc3N[C@@H]3C[C@H](CO)[C@@H](O)[C@H]3O)oc2c(C)n1` [Example 12], the EC90 fell in the range of 0.5 to 5 µM.

Still in this assay, the particulars now being: Hepatitis C virus, 72 h, HCV replicon cells, harvested day 3, replicon RNA by real time PCR; given as number; read-out: EC90 (μM) range.
With `CCOc1cc2cc(-c3c(C)nc(N[C@H](C)c4ccc(C)cc4)nc3N[C@@H]3C[C@H](CO)[C@@H](O)[C@H]3O)oc2c(C)n1` [Example 40], the EC90 was found to be 0.15 µM. Same read-out and setting: the result for `COCCNc1nc(C)c(-c2cc3cc(OCC4CC4)ncc3o2)c(N[C@@H]2C[C@H](CO)[C@@H](O)[C@H]2O)n1` [Example 59] reads 2 µM; that for `CCC(CC)Oc1cc2cc(-c3c(C)nc(NCCOC)nc3N[C@@H]3C[C@H](CO)[C@@H](O)[C@H]3O)oc2c(C)n1` [Example 48], more than 25 µM; that for `CCOc1cc2cc(-c3c(C)nc(NCC4CC4)nc3N[C@@H]3C[C@H](CO)[C@@H](O)C3)oc2c(C)n1` [Example 52], 0.3 µM.

The same assay, now with this note: Hepatitis C virus, 72 h, HCV replicon cells, harvested day 3, replicon RNA by real time PCR; reported as range class; read-out: EC90 (μM) range.
`CC(=O)c1ccc(-c2c(Cl)nc(N)nc2N[C@@H]2C[C@H](CO)[C@@H](O)[C@H]2O)s1` [Example 154]: the EC90 was more than 5 µM. Same read-out and setting: with `Nc1nc(Cl)c(-c2nc3cc(C(F)(F)F)ccc3s2)c(N[C@@H]2C[C@H](CO)[C@@H](O)[C@H]2O)n1` [Example 112] the figure was 0.5 to 5 µM; with `Nc1ncc(-c2cc3ccncc3o2)c(N[C@@H]2C[C@H](CO)[C@@H](O)[C@H]2O)n1` [Example 113], 0.5 to 5 µM.

Consider `Nc1nc(Cl)c(-c2ccccn2)c(N[C@@H]2C[C@H](CO)[C@@H](O)[C@H]2O)n1` [Example 157], for which the EC90 is more than 5 µM. On the same count and under the same terms, with `Nc1nc(Cl)c(-c2ccc(C=O)s2)c(N[C@@H]2C[C@H](CO)[C@@H](O)[C@H]2O)n1` [Example 155] the figure was more than 5 µM; with `Nc1nc(Cl)c(-c2cc3ccc(C(=O)N4CCOCC4)cc3o2)c(N[C@@H]2C[C@H](CO)[C@@H](O)[C@H]2O)n1` [Example 179], more than 5 µM; with `Nc1nc(Cl)c(-c2cc3cc(Cl)ccc3o2)c(N[C@@H]2C[C@H](CO)[C@@H](O)[C@H]2O)n1` [Example 165], more than 5 µM. Still for that read-out and setting: with `CCOc1cc2cc(-c3c(C)nc(NCCOC)nc3N[C@@H]3C[C@H](CO)[C@@H](O)[C@H]3O)oc2c(C)n1` [Example 31] the figure was less than 0.5 µM.

With `CCOc1ccc2nc(-c3c(Cl)nc(N(C)C)nc3N[C@@H]3C[C@H](CO)[C@@H](O)[C@H]3O)sc2c1` [Example 203], the concentration for an effect of 90% (EC90) is more than 5 µM. Same read-out and setting: the result for `COCCNc1nc(C)c(-c2nc3ccccc3s2)c(N[C@@H]2C[C@H](CO)[C@@H](O)[C@H]2O)n1` [Example 205] reads less than 0.5 µM.

Take `Nc1nc(Cl)c(-c2cc3c(F)cncc3o2)c(N[C@@H]2C[C@H](CO)[C@@H](O)[C@H]2O)n1` [Example 303]: the EC90 lay within 0.5 to 5 µM.

The assay is the same for the next values; noted with them: Hepatitis C virus, 72 h, HCV replicon cells, harvested on day 3, replicon RNA by real time PCR; calculated EC90 reported as range class; read-out: EC90 (μM) range.
For the compound `Cc1cc2cc(-c3c(Cl)nc(NCC4CCCCC4)nc3N[C@@H]3C[C@H](CO)[C@@H](O)[C@H]3O)oc2c(C)n1` [Example 460], the EC90 is less than 0.5 µM. On the same count and under the same terms, with `Cc1nc(NCc2cccn2C)nc(N[C@@H]2C[C@H](CO)[C@H]3OC(C)(C)O[C@H]32)c1-c1nc2ccccc2s1` [Example 468] the figure was less than 0.5 µM; with `CCc1cc2cc(-c3c(Cl)nc(NCC(F)(F)F)nc3N[C@@H]3C[C@H](CO)[C@@H](O)[C@H]3O)oc2cn1` [Example 516], less than 0.5 µM; with `CCC(C)(C)Nc1nc(Cl)c(-c2nc3ccccc3s2)c(N[C@@H]2C[C@H](CO)[C@@H](O)[C@H]2O)n1` [Example 506], less than 0.5 µM.

Regarding `Cc1ccc(CNc2nc(C)c(-c3nc4ccccc4s3)c(N[C@@H]3C[C@H](CO)[C@@H](O)[C@H]3O)n2)s1` [Example 497], the EC90 was less than 0.5 µM. On the same count and under the same terms, with `Cc1cc(C)cc(CNc2nc(C)c(-c3nc4ccccc4s3)c(N[C@@H]3C[C@H](CO)[C@H]4OC(C)(C)O[C@H]43)n2)c1` [Example 712] the figure was less than 0.5 µM. On the same count and under the same terms, the result for `Cc1ccc(CNc2nc(C)c(-c3nc4ccccc4s3)c(N[C@@H]3C[C@H](CO)[C@@H](O)[C@H]3O)n2)cc1` [Example 490] reads less than 0.5 µM; that for `CCc1cc2cc(-c3c(C)nc(NCc4ccccn4)nc3N[C@@H]3C[C@H](CO)[C@H]4OC(C)(C)O[C@H]43)oc2cn1` [Example 343], more than 5 µM.

`Cc1nc(NCC2CC2)nc(N[C@@H]2C[C@H](CO)[C@@H](O)[C@H]2O)c1-c1cc2cc(C(F)(F)F)ncc2o1` [Example 143]: the EC90 was 0.5 to 5 µM. On the same count and under the same terms, the result for `Cc1nc(NCc2cccc(C(F)(F)F)c2)nc(N[C@@H]2C[C@H](CO)[C@H]3OC(C)(C)O[C@H]32)c1-c1nc2ccccc2s1` [Example 237] reads 0.5 to 5 µM; that for `CCCNc1nc(C)c(-c2nc3ccccc3s2)c(N[C@@H]2C[C@H](CO)[C@@H](O)[C@H]2O)n1` [Example 422], less than 0.5 µM. On the same count and under the same terms, the result for `Cc1nc(NCc2cccs2)nc(N[C@@H]2C[C@H](CO)[C@@H](O)[C@H]2O)c1-c1nc2ccccc2s1` [Example 329] reads less than 0.5 µM.

The assay is the same for the next values; noted with them: Hepatitis C virus, 72 h, HCV replicon cells, replicon RNA level by real time PCR (Taqman), harvested on day 3; calculated EC90 reported as range class; read-out: EC90 (μM) range.
As for `Cc1nc(NC(C)c2ccccn2)nc(N[C@@H]2C[C@H](CO)[C@@H](O)[C@H]2O)c1-c1nc2ccccc2s1` (stereo partly drawn) [Example 1202], the EC90 was 0.5 to 5 µM. Still for that read-out and setting: the result for `COc1cnccc1Nc1nc(C)c(-c2nc3ccccc3s2)c(N[C@@H]2C[C@H](CO)[C@H]3OC(C)(C)O[C@H]32)n1` [Example 1130] reads more than 5 µM; that for `Cc1nc(NCC2CC2)nc(N[C@@H]2C[C@H](CO)[C@@H](O)[C@H]2O)c1-c1cc2cc(OCC(C)C)nc(C)c2o1` [Example 1054], 0.5 to 5 µM. The same measure, in the same setting: with `CCOCCNc1nc(C)c(-c2nc3c(C)nccc3s2)c(N[C@@H]2C[C@H](CO)[C@@H](O)[C@H]2O)n1` [Example 535] the figure was less than 0.5 µM; with `Cc1ccc(CNc2nc(C)c(-c3nc4cnccc4s3)c(N[C@@H]3C[C@H](CO)[C@@H](O)[C@H]3O)n2)s1` [Example 539], less than 0.5 µM; with `Cc1nc(NC(C)(C)c2ccccc2)nc(N[C@@H]2C[C@H](CO)[C@@H](O)[C@H]2O)c1-c1nc2ccccc2s1` [Example 1228], 0.5 to 5 µM. On to `COc1cccc2sc(-c3c(C)nc(NCC(F)(F)F)nc3N[C@@H]3C[C@H](C(C)O)[C@@H](O)[C@H]3O)nc12` (stereo partly drawn) [Example 1072], for which the EC90 is 0.5 to 5 µM. Consider `Cc1cc2sc(-c3c(C)nc(NCC4CC4)nc3N[C@@H]3C[C@H](CO)[C@@H](O)[C@H]3O)nc2c(C)n1` [Example 1134], for which the EC90 was less than 0.5 µM. Same read-out and setting: with `Cc1nc(N[C@@H]2CCc3ccccc32)nc(N[C@@H]2C[C@H](CO)[C@@H](O)[C@H]2O)c1-c1nc2cnccc2s1` [Example 1312] the figure was 0.5 to 5 µM. Still for that read-out and setting: with `Cc1nc(NCc2ccc3c(c2)OCO3)nc(N[C@@H]2C[C@H](CO)[C@@H](O)[C@H]2O)c1-c1nc2ccccc2s1` [Example 1203] the figure was 0.5 to 5 µM; with `OC[C@H]1C[C@@H](Nc2nc(NCC(F)(F)F)ncc2-c2nc3ccccc3s2)[C@H](O)[C@@H]1O` [Example 1058], 0.5 to 5 µM; with `Cc1nc(NCC(C)(C)C)nc(N[C@@H]2C[C@H](CO)[C@@H](O)[C@H]2O)c1-c1ccc2ccccc2n1` [Example 1322], more than 5 µM. Same read-out and setting: with `Cc1nc(NCc2cccc(N)c2)nc(N[C@@H]2C[C@H](CO)[C@H]3OC(C)(C)O[C@H]32)c1-c1nc2ccccc2s1` [Example 1111] the figure was 0.5 to 5 µM; with `COc1ccc(Nc2nc(C)c(-c3nc4ccccc4s3)c(N[C@@H]3C[C@H](CO)[C@@H](O)[C@H]3O)n2)c(OC)c1` [Example 1235], 0.5 to 5 µM.

The same assay, now with this note: Hepatitis C virus, 72 h, HCV replicon cells, replicon RNA level by real time PCR, harvested day 3; read-out: EC90 (μM) range.
Regarding `Cc1ccc([C@@H](C)Nc2nc(C)c(-c3nc4cnccc4s3)c(N)n2)cc1` [Example 1511], the EC90 is less than 0.5 µM.

With `Cc1nc(NCC(F)(F)F)nc(N[C@@H]2CC[C@@H](O)[C@@]2(C)O)c1-c1nc2ccccc2s1` [Example 1702], the EC90 was 0.5 to 5 µM. The same measure, in the same setting: the result for `Cc1nc(NCC(F)(F)F)nc(N[C@@H]2C[C@H](C(O)C(C)C)[C@@H](O)[C@H]2O)c1-c1nc2ccccc2s1` (stereo partly drawn) [Example 1638] reads 0.5 to 5 µM; that for `Cc1nc(N[C@@H](c2ccc(-n3cccn3)cc2)C(F)(F)F)nc(N[C@@H]2C[C@H](CO)[C@@H](O)[C@H]2O)c1-c1nc2c(C)nccc2s1` [Example 1541], less than 0.5 µM. Same read-out and setting: the result for `Cc1ccc([C@@H](C)Nc2nc(C)c(-c3nc4ccccc4o3)c(N[C@@H]3C[C@H](CO)[C@@H](O)[C@H]3O)n2)cc1` [Example 1360] reads 0.5 to 5 µM; that for `Cc1nc(NCc2cc3cn[nH]c3cc2F)nc(N[C@@H]2C[C@H](CO)[C@@H](O)[C@H]2O)c1-c1nc2cnccc2s1` [Example 1911], less than 0.5 µM. On the same count and under the same terms, the result for `Cc1nc(NCc2ccc3[nH]cnc3c2)nc(N[C@@H]2C[C@H](CO)[C@@H](O)[C@H]2O)c1-c1nc2ccccc2s1` [Example 1912] reads less than 0.5 µM; that for `Cc1nc(NCC(F)(F)F)nc(N[C@@H]2C[C@H](C(C)O)[C@@H](O)[C@H]2O)c1-c1nc2ccccc2s1` (stereo partly drawn) [Example 1632], less than 0.5 µM; that for `Cc1nc(N[C@H](C)C2CC2)nc(N[C@@H]2C[C@@H](C(C)O)[C@@H](O)[C@H]2O)c1-c1nc2cnccc2s1` (stereo partly drawn) [Example 1651], less than 0.5 µM. With `Cc1nc(N[C@H](C)c2ccc(OC(F)(F)F)cc2)nc(N[C@@H]2C[C@H](CO)[C@@H](O)[C@H]2O)c1-c1nc2c(C)nccc2s1` [Example 1528], the EC90 is less than 0.5 µM.

For the compound `Cc1nc(N[C@H](C)c2ccc(OC(F)F)cc2)nc(N[C@@H]2C[C@H](CO)[C@@H](O)[C@H]2O)c1-c1nc2c(C)nccc2s1` [Example 1545], the EC90 is less than 0.5 µM. On the same count and under the same terms, the result for `Cc1nc(NCC(F)(F)F)nc(N[C@@H]2C[C@H](CNS(=O)(=O)C(F)(F)F)[C@@H](O)[C@H]2O)c1-c1nc2ccccc2s1` [Example 1523] reads 0.5 to 5 µM.
